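Results reflect a 48-hour exposure of cells in 96-well plates to compound at five concentrations. TGI denotes the concentration required for complete inhibition of growth.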
Legend:
Experiment in all cases: NCI-60 cell line screen, 48 h
BT-549 breast = system: BT-549 breast
CAKI-1 renal = system: CAKI-1 renal
K-562 leukemia = system: K-562 leukemia
MDA-MB-231 breast = system: MDA-MB-231 breast
NCI-H522 lung = system: NCI-H522 lung
OVCAR-8 ovarian = system: OVCAR-8 ovarian
SK-MEL-2 melanoma = system: SK-MEL-2 melanoma
SK-MEL-28 melanoma = system: SK-MEL-28 melanoma
SNB-19 CNS = system: SNB-19 CNS
MDA-MB-435 = system: MDA-MB-435

## O=[N+]([O-])/C=C/c1cn(CCCCCn2cc(/C=C/[N+](=O)[O-])c3ccccc32)c2ccccc12
BT-549 breast
  TGI: 6.72 µM
CAKI-1 renal
  TGI: > 53.6 µM
K-562 leukemia
  TGI: 3.7 µM
MDA-MB-231 breast
  TGI: 4.28 µM
NCI-H522 lung
  TGI: 50.4 µM
OVCAR-8 ovarian
  TGI: 16.5 µM
SK-MEL-2 melanoma
  TGI: 38.1 µM
SK-MEL-28 melanoma
  TGI: 12.2 µM
SNB-19 CNS
  TGI: 24.2 µM

## O=c1c2c(nc3n1CCC3)sc1c(O)c(Br)ccc12
CAKI-1 renal
  TGI: > 100 µM
K-562 leukemia
  TGI: 59.2 µM
NCI-H522 lung
  TGI: 37.9 µM
OVCAR-8 ovarian
  TGI: 24.2 µM
SK-MEL-2 melanoma
  TGI: 39.3 µM
SK-MEL-28 melanoma
  TGI: 34.8 µM
SNB-19 CNS
  TGI: > 100 µM

## CNc1ccc(Cl)cc1S(=O)(=O)c1ccccc1[N+](=O)[O-]
BT-549 breast
  TGI: > 100 µM
K-562 leukemia
  TGI: > 100 µM
MDA-MB-231 breast
  TGI: > 100 µM
NCI-H522 lung
  TGI: > 100 µM
OVCAR-8 ovarian
  TGI: > 100 µM
SK-MEL-2 melanoma
  TGI: > 100 µM
SK-MEL-28 melanoma
  TGI: > 100 µM
SNB-19 CNS
  TGI: > 100 µM

## Nc1c(N=Nc2ccc(-c3ccc(N=Nc4c(O)ccc5cc(S(=O)(=O)O)cc(S(=O)(=O)O)c45)cc3)cc2)c(S(=O)(=O)O)cc2cc(S(=O)(=O)O)c(N=Nc3ccccc3)c(O)c12
K-562 leukemia
  TGI: > 100 µM
NCI-H522 lung
  TGI: > 100 µM
OVCAR-8 ovarian
  TGI: > 100 µM
SK-MEL-2 melanoma
  TGI: > 100 µM
SK-MEL-28 melanoma
  TGI: > 100 µM
SNB-19 CNS
  TGI: > 100 µM

## Cc1cn([C@H]2[C@@H](CO)C[C@H]2O)c(=O)[nH]c1=O
BT-549 breast
  TGI: > 100 µM
CAKI-1 renal
  TGI: > 100 µM
K-562 leukemia
  TGI: > 100 µM
MDA-MB-231 breast
  TGI: > 100 µM
MDA-MB-435
  TGI: > 100 µM
NCI-H522 lung
  TGI: > 100 µM
OVCAR-8 ovarian
  TGI: > 100 µM
SK-MEL-2 melanoma
  TGI: > 100 µM
SK-MEL-28 melanoma
  TGI: > 100 µM

## COc1ccc(-c2nc(-c3cnccn3)n(C3OC(CO)C(O)C(O)C3O)n2)cc1 (configuration not stated)
BT-549 breast
  TGI: > 100 µM
K-562 leukemia
  TGI: > 100 µM
MDA-MB-231 breast
  TGI: > 100 µM
MDA-MB-435
  TGI: > 100 µM
NCI-H522 lung
  TGI: > 100 µM
OVCAR-8 ovarian
  TGI: > 100 µM
SK-MEL-28 melanoma
  TGI: > 100 µM
SNB-19 CNS
  TGI: > 100 µM

## N#CCCC1(CCC#N)CCCCCCC(CCC#N)(CCC#N)C(O)C1O (configuration not stated)
CAKI-1 renal
  TGI: > 100 µM
K-562 leukemia
  TGI: > 100 µM
MDA-MB-435
  TGI: > 100 µM
NCI-H522 lung
  TGI: > 100 µM
OVCAR-8 ovarian
  TGI: > 100 µM
SK-MEL-2 melanoma
  TGI: > 100 µM
SK-MEL-28 melanoma
  TGI: > 100 µM
SNB-19 CNS
  TGI: > 100 µM

## CNc1ccc(S(=O)Nc2ccccc2)cc1 (configuration not stated)
K-562 leukemia
  TGI: > 100 µM
MDA-MB-231 breast
  TGI: > 100 µM
MDA-MB-435
  TGI: > 100 µM
NCI-H522 lung
  TGI: 96.7 µM
OVCAR-8 ovarian
  TGI: > 100 µM
SK-MEL-2 melanoma
  TGI: > 100 µM
SK-MEL-28 melanoma
  TGI: > 100 µM
SNB-19 CNS
  TGI: > 100 µM

## CC(=O)O[C@H]1C(=O)N(c2cc3c4ccccc4ccc3c3ccccc23)[C@@H]1c1ccccc1
CAKI-1 renal
  TGI: 35.5 µM
K-562 leukemia
  TGI: > 100 µM
MDA-MB-231 breast
  TGI: 48.2 µM
MDA-MB-435
  TGI: 5.68 µM
OVCAR-8 ovarian
  TGI: 32.1 µM
SK-MEL-2 melanoma
  TGI: 9.4 µM
SK-MEL-28 melanoma
  TGI: 66.4 µM
SNB-19 CNS
  TGI: > 100 µM

## CCN(CC)CCCCC1CCN(CC(=O)N2c3ccccc3NC(=O)CC2C)CC1 (configuration not stated)
CAKI-1 renal
  TGI: > 100 µM
K-562 leukemia
  TGI: > 100 µM
NCI-H522 lung
  TGI: > 100 µM
OVCAR-8 ovarian
  TGI: > 100 µM
SK-MEL-2 melanoma
  TGI: > 100 µM
SK-MEL-28 melanoma
  TGI: > 100 µM
SNB-19 CNS
  TGI: > 100 µM

## COC(=O)c1ccc(/C=C2\CCc3ccccc3C2=O)cc1
BT-549 breast
  TGI: > 100 µM
CAKI-1 renal
  TGI: > 100 µM
K-562 leukemia
  TGI: > 100 µM
MDA-MB-231 breast
  TGI: > 100 µM
MDA-MB-435
  TGI: > 100 µM
NCI-H522 lung
  TGI: > 100 µM
OVCAR-8 ovarian
  TGI: > 100 µM
SK-MEL-28 melanoma
  TGI: > 100 µM
SNB-19 CNS
  TGI: > 100 µM

## C=CCOC(=O)CCCCCCCCCCCCCCCOC(=O)C1=C(CCC[C@@H](C)O[Si](C)(C)C(C)(C)C)NC(=O)N2[C@H](CC3(CC/C=C\[C@H](CC)O[Si](C(C)C)(C(C)C)C(C)C)OCCO3)CC[C@H]12
BT-549 breast
  TGI: > 100 µM
CAKI-1 renal
  TGI: > 100 µM
MDA-MB-231 breast
  TGI: > 100 µM
MDA-MB-435
  TGI: > 100 µM
NCI-H522 lung
  TGI: > 100 µM
SK-MEL-2 melanoma
  TGI: > 100 µM
SK-MEL-28 melanoma
  TGI: > 100 µM
SNB-19 CNS
  TGI: > 100 µM

## CC(C)CCCC(C)[C@H]1CC[C@H]2N=C(Nc3ccccc3)CCC[C@]12C (some centres not stated)
BT-549 breast
  TGI: 7.66 µM
CAKI-1 renal
  TGI: 7.07 µM
K-562 leukemia
  TGI: 3.55 µM
MDA-MB-231 breast
  TGI: 3.04 µM
MDA-MB-435
  TGI: 3.75 µM
OVCAR-8 ovarian
  TGI: 3.66 µM
SK-MEL-2 melanoma
  TGI: 3.2 µM
SK-MEL-28 melanoma
  TGI: 3.89 µM
SNB-19 CNS
  TGI: 17.1 µM

## OC12CCCCCC1(N1CCOCC1)c1ccccc12 (configuration not stated)
CAKI-1 renal
  TGI: > 100 µM
K-562 leukemia
  TGI: > 100 µM
NCI-H522 lung
  TGI: > 100 µM
OVCAR-8 ovarian
  TGI: > 100 µM
SK-MEL-2 melanoma
  TGI: > 100 µM
SK-MEL-28 melanoma
  TGI: > 100 µM
SNB-19 CNS
  TGI: > 100 µM

## CCOc1ccc(-c2oc(/C=N/NS(=O)(=O)c3ccc(C)cc3)c([N+](=O)[O-])c2-c2ccc(OCC)cc2)cc1
CAKI-1 renal
  TGI: 43.1 µM
K-562 leukemia
  TGI: > 56.3 µM
NCI-H522 lung
  TGI: 20.6 µM
OVCAR-8 ovarian
  TGI: 50 µM
SK-MEL-2 melanoma
  TGI: 44.8 µM
SK-MEL-28 melanoma
  TGI: 28.3 µM
SNB-19 CNS
  TGI: 43.1 µM

## O=C(OCc1ccccc1C1CSCSC1)c1cc(C(=O)OCc2ccccc2C2CSCSC2)c(C(=O)OCc2ccccc2C2CSCSC2)cc1C(=O)OCc1ccccc1C1CSCSC1
CAKI-1 renal
  TGI: > 100 µM
K-562 leukemia
  TGI: > 100 µM
NCI-H522 lung
  TGI: > 100 µM
OVCAR-8 ovarian
  TGI: > 100 µM
SK-MEL-2 melanoma
  TGI: > 100 µM
SK-MEL-28 melanoma
  TGI: > 100 µM

## COC(=O)c1c(OC)cc2cc3c(c(O)c2c1C)C(=O)C1(O)C(=O)C=C(OC)C(OC(=O)CC(C)N)=C1C3=O (configuration not stated)
BT-549 breast
  TGI: > 100 µM
CAKI-1 renal
  TGI: > 100 µM
MDA-MB-231 breast
  TGI: 43.4 µM
MDA-MB-435
  TGI: > 100 µM
NCI-H522 lung
  TGI: > 100 µM
OVCAR-8 ovarian
  TGI: 92.9 µM
SK-MEL-2 melanoma
  TGI: > 100 µM
SK-MEL-28 melanoma
  TGI: > 100 µM
SNB-19 CNS
  TGI: > 100 µM

## CC1=C2C(=O)c3ccccc3C(=O)[C@H]2C[C@@H](N2CCCCCC2=O)O1
CAKI-1 renal
  TGI: 35.5 µM
K-562 leukemia
  TGI: 53.4 µM
MDA-MB-231 breast
  TGI: 53.5 µM
MDA-MB-435
  TGI: 29.7 µM
NCI-H522 lung
  TGI: 38.9 µM
OVCAR-8 ovarian
  TGI: 40.3 µM
SK-MEL-2 melanoma
  TGI: 40 µM
SK-MEL-28 melanoma
  TGI: 35.7 µM
SNB-19 CNS
  TGI: 39.2 µM

## Cc1cc2occ(-c3ccc(Cl)cc3)c2c(=O)o1
CAKI-1 renal
  TGI: > 100 µM
K-562 leukemia
  TGI: > 100 µM
NCI-H522 lung
  TGI: > 100 µM
OVCAR-8 ovarian
  TGI: > 100 µM
SK-MEL-2 melanoma
  TGI: > 100 µM
SK-MEL-28 melanoma
  TGI: > 100 µM
SNB-19 CNS
  TGI: > 100 µM

## Cc1ccc2c(c1)CC1(C2=O)[C@H](c2ccccc2)C2C(=O)c3ccc(C)cc3C2[C@H]1c1ccccc1 (some centres not stated)
BT-549 breast
  TGI: > 100 µM
CAKI-1 renal
  TGI: > 100 µM
K-562 leukemia
  TGI: > 100 µM
MDA-MB-231 breast
  TGI: > 100 µM
MDA-MB-435
  TGI: > 100 µM
NCI-H522 lung
  TGI: > 100 µM
OVCAR-8 ovarian
  TGI: > 100 µM
SK-MEL-28 melanoma
  TGI: > 100 µM
SNB-19 CNS
  TGI: > 100 µM

## [N-]=[N+]=C(C(=O)C(=[N+]=[N-])C(=O)c1ccccc1)C(=O)c1ccccc1
BT-549 breast
  TGI: > 100 µM
K-562 leukemia
  TGI: > 100 µM
MDA-MB-231 breast
  TGI: > 100 µM
MDA-MB-435
  TGI: > 100 µM
NCI-H522 lung
  TGI: > 100 µM
OVCAR-8 ovarian
  TGI: > 100 µM
SK-MEL-2 melanoma
  TGI: > 100 µM
SK-MEL-28 melanoma
  TGI: > 100 µM
SNB-19 CNS
  TGI: > 100 µM

## CC(=O)c1ccc(NC(=O)CSc2nc(C)nc3c2sc(=S)n3-c2ccccc2)cc1
CAKI-1 renal
  TGI: > 3.16 µM
K-562 leukemia
  TGI: > 10 µM
MDA-MB-231 breast
  TGI: > 3.16 µM
MDA-MB-435
  TGI: > 3.16 µM
NCI-H522 lung
  TGI: > 3.16 µM
OVCAR-8 ovarian
  TGI: > 10 µM
SK-MEL-2 melanoma
  TGI: > 3.16 µM
SK-MEL-28 melanoma
  TGI: > 3.16 µM
SNB-19 CNS
  TGI: > 3.16 µM

## Nc1ncc(/C=N/O)c(NCC2(CO)CC(CCc3ccccc3)C2)n1 (configuration not stated)
CAKI-1 renal
  TGI: > 100 µM
K-562 leukemia
  TGI: 31.7 µM
MDA-MB-231 breast
  TGI: 21.8 µM
MDA-MB-435
  TGI: 23.8 µM
NCI-H522 lung
  TGI: 20.9 µM
OVCAR-8 ovarian
  TGI: 24.1 µM
SK-MEL-2 melanoma
  TGI: 39.2 µM

## CC1(C)[C@@H]2CC[C@@]1(C)[C@H](O)[C@@H]2SCc1ccccc1
CAKI-1 renal
  TGI: 43.1 µM
K-562 leukemia
  TGI: > 100 µM
MDA-MB-231 breast
  TGI: 33 µM
MDA-MB-435
  TGI: 33.2 µM
NCI-H522 lung
  TGI: 29.3 µM
OVCAR-8 ovarian
  TGI: 37.2 µM
SK-MEL-2 melanoma
  TGI: 33.7 µM
SK-MEL-28 melanoma
  TGI: 38.4 µM
SNB-19 CNS
  TGI: 31.7 µM
